The source of these data is ChEMBL document CHEMBL1201862, “PubChem BioAssay data set” (2004).

Assay in all cases: DTP human tumour cell line panel, 48 h
Assay [1] concerns 786-0.
In assay [2] the test system is KM12.
Assay [3] has as its system SK-MEL-2.
Assay [4] has as its system MDA-N.
Assay [5] concerns HCC 2998.
The test system of assay [6] is NCI/ADR-RES.
Assay [7] has as its system DU-145.
The subject of assay [8] is HT-29.
The test system of assay [9] is MDA-MB-435.
Assay [10] concerns OVCAR-8.
Assay [11] concerns K562.
Assay [12] has as its system T47D.
Assay [13] deals with A498.
The test system of assay [14] is ACHN.
The test system of assay [15] is MDA-MB-231.
In assay [16] the test system is SF-268.
Assay [17] concerns NCI-H522.
The subject of assay [18] is SF-295.
Assay [19] concerns SF-539.
For assay [20], the system named is SNB-75.

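96-well plates; 48 h exposure; 5 concentrations. Endpoints by linear interpolation between flanking doses. Not reached: highest tested concentration assigned. The concentration for 50% growth inhibition is given as GI50.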 Active and inactive are the calls of the source. Cut-off read from the data, not from the text of the source: active = GI50 up to about 1.1 µM and inactive = higher. Non-standard residues stand in square brackets, D forms with d. Residues, ends and D or L forms follow the SMILES beside them.

For the molecule `CCOC(=O)N1CCC(=C2c3ccc(Cl)cc3CCc3cccnc32)CC1` [LORATADINE], the GI50 is 15.2 µM (inactive) in [1]; 10.6 µM (inactive) in assay [2]; 11.2 µM (inactive) in assay [3]; 4.55 µM (inactive) in [4]; 10 µM (inactive) in [5]; 6.56 µM (inactive) in [6]. The GI50 is 11.5 µM (inactive) in assay [7]; 3.18 µM (inactive) in assay [8]; 8.83 µM (inactive) in assay [9]; 12.7 µM (inactive) in [10]; 6.12 µM (inactive) in assay [11]; 13.3 µM (inactive) in assay [12]. Moreover, the concentration for 50% growth inhibition (GI50) in [13] was 0.849 µM (active); in assay [14], 4.15 µM (inactive); in assay [15], 20 µM (inactive).

For `COC(=O)C1=C(C)NC(C)=C([N+](=O)[O-])C1c1cccc(N=O)c1` (stereo not given), the GI50 was 14.2 µM (inactive) in assay [1]; 13.6 µM (inactive) in assay [2]; 18.2 µM (inactive) in [3]; 10 µM (inactive) in [4]; 18.9 µM (inactive) in assay [5]; 21 µM (inactive) in assay [6]. Moreover, the GI50 was 15.2 µM (inactive) in assay [7]; 17.5 µM (inactive) in assay [16]; 16.8 µM (inactive) in assay [8]; 12.7 µM (inactive) in [9]; 1.66 µM (inactive) in assay [17]; 16.3 µM (inactive) in [10]. For the same molecule, the GI50 was 4.47 µM (inactive) in [11]; 12.1 µM (inactive) in assay [12]; 21.7 µM (inactive) in [18]; 24.4 µM (inactive) in assay [13]; 12.3 µM (inactive) in assay [14]; 18.3 µM (inactive) in assay [15]. Besides, the GI50 in assay [19] is 16.8 µM (inactive).

In the case of `CCCCCCn1c(SC)nc(COC(=O)NC)c1COC(=O)NC`, the GI50 in assay [1] was 15.3 µM (inactive); in assay [2], 18.2 µM (inactive); in assay [3], 25.8 µM (inactive); in assay [4], 19.2 µM (inactive); in assay [6] it was 25.5 µM (inactive); in assay [7] it was 16.5 µM (inactive). The GI50 in assay [20] is 14.6 µM (inactive); in [16], 14.6 µM (inactive); in [8], 20 µM (inactive); in assay [9] it was 19.7 µM (inactive); in [17], 11.4 µM (inactive); in assay [10], 17.4 µM (inactive). The GI50 in [11] was 19.3 µM (inactive); in assay [12], 17.7 µM (inactive); in assay [18], 20.2 µM (inactive); in assay [13], 16.3 µM (inactive); in assay [14] it was 16.6 µM (inactive); in [15] it was 17.6 µM (inactive). In addition, in assay [19], the GI50 is 17.6 µM (inactive).

With `COC(=O)[C@@]1(C)CCC[C@]2(C(=O)O)C3Cc4occc4[C@H](C)[C@@H]3CCC21` (stereo not given in full), the GI50 in assay [1] was 73.1 µM (inactive); in [2], 49.3 µM (inactive); in [3], 51.2 µM (inactive); in assay [4] it was 75.9 µM (inactive); in assay [5] it was 30.2 µM (inactive); in assay [6], 25.6 µM (inactive). Moreover, the GI50 in assay [7] is 44.2 µM (inactive); in assay [16] it was > 100 µM (inactive); in assay [8] it was 29 µM (inactive); in [9] it was 80.5 µM (inactive); in assay [10], 68.1 µM (inactive); in assay [11], 29.2 µM (inactive). Moreover, the GI50 was 40.6 µM (inactive) in assay [12]; 33.6 µM (inactive) in assay [18]; 68.7 µM (inactive) in assay [13]; 44.2 µM (inactive) in assay [14]; > 100 µM (inactive) in assay [15]; 42.9 µM (inactive) in [19].

With `O=C(CN1CCCCC1)c1ccc2c(c1)Sc1ccccc1O2`, the GI50 in assay [1] is 14.8 µM (inactive); in [2] it was 16 µM (inactive); in [3] it was 18.7 µM (inactive); in assay [4], 15.8 µM (inactive); in assay [5] it was 15.5 µM (inactive); in [6] it was 16.7 µM (inactive). Also, the GI50 is 20.9 µM (inactive) in [7]; 11.6 µM (inactive) in assay [20]; 17.5 µM (inactive) in assay [16]; 10.9 µM (inactive) in assay [8]; 14.5 µM (inactive) in assay [9]; 16.9 µM (inactive) in assay [10]. The GI50 in [11] was 57 µM (inactive); in [12], 22.8 µM (inactive); in assay [18], 15.7 µM (inactive); in assay [13], 16 µM (inactive); in assay [14] it was 14.1 µM (inactive); in assay [15], 16.7 µM (inactive). The GI50 in assay [19] is 14.3 µM (inactive).

For `CCn1c2ccccc2c2ccc(C3C(C(=O)OC)=C(C)NC(C)=C3C(=O)OC)cc21`, the GI50 in [1] was 38.2 µM (inactive); in assay [2] it was 33.7 µM (inactive); in assay [4] it was 37.8 µM (inactive); in assay [5], 42.5 µM (inactive); in assay [6], 38.5 µM (inactive); in assay [7], > 100 µM (inactive). Besides, the GI50 in assay [20] is 51.5 µM (inactive); in assay [16], 73.8 µM (inactive); in [8], 33.7 µM (inactive); in assay [9], 45.6 µM (inactive); in assay [10], 49.3 µM (inactive); in [11], 41.7 µM (inactive). Further, the GI50 in assay [12] was 63.8 µM (inactive); in assay [18], 31.7 µM (inactive); in assay [13], 19.8 µM (inactive); in [14], 38.8 µM (inactive); in assay [15] it was 15.9 µM (inactive); in [19], 30.2 µM (inactive).

Regarding `CCN(CC)CCOCCn1c2c(c3ccccc31)CCCC2`, the GI50 is 16.2 µM (inactive) in assay [1]; 34.5 µM (inactive) in [2]; 15.7 µM (inactive) in assay [3]; 17.2 µM (inactive) in [4]; 16.8 µM (inactive) in assay [5]; 12.7 µM (inactive) in [6]. The GI50 was 30.9 µM (inactive) in [7]; 34.8 µM (inactive) in [20]; 36.1 µM (inactive) in assay [16]; 23.7 µM (inactive) in assay [8]; 17.8 µM (inactive) in assay [9]; 33.7 µM (inactive) in [10]. Moreover, the GI50 is 13.6 µM (inactive) in assay [11]; 20.6 µM (inactive) in assay [12]; 38.5 µM (inactive) in assay [18]; 19.1 µM (inactive) in assay [14]; 18 µM (inactive) in assay [15]; 16.6 µM (inactive) in assay [19].

Regarding `CN1CCN(CCCN)CC1`, the GI50 in [1], in assay [2], in assay [3], in [4], in [6] and in assay [7] was > 100 µM (inactive) in each case. The GI50 in assay [20], in assay [16], in [8], in [9], in assay [17] and in [10] was > 100 µM (inactive) each time. The GI50 in assay [11], in assay [12], in [18], in [13], in [14] and in [15] was > 100 µM (inactive) throughout.

As to `CSCC[C@H](NC(=O)[C@@H](N)CC(N)=O)C(=O)N[C@@H](Cc1c[nH]c2ccccc12)C(=O)N[C@@H](CCC(N)=O)C(=O)N[C@@H](CCC(=O)O)C(=O)N[C@H](C(=O)NCC(=O)N[C@@H](CCCCN)C(=O)N[C@H](C)C(=O)O)C(C)C` (H-NMWQEVGK[dA]-OH), the GI50 in [1], in [2], in assay [4], in assay [5], in assay [6] and in assay [7] was > 100 µM (inactive) throughout. The GI50 in [20], in [16], in [8], in [9], in assay [10] and in [11] was > 100 µM (inactive) throughout. Moreover, the GI50 in assay [12], in assay [18], in assay [13], in assay [14], in assay [15] and in [19] was > 100 µM (inactive) in each case.

Regarding `O=C(CCc1cccc(O)c1)NCCc1cccc(OCc2ccccc2)c1`, the GI50 in [1] is 25.4 µM (inactive); in assay [2] it was 6.81 µM (inactive); in [3], 15.6 µM (inactive); in assay [4] it was 18.6 µM (inactive); in assay [5] it was 17.3 µM (inactive); in [6], 18.3 µM (inactive). The GI50 was 27.5 µM (inactive) in assay [7]; 15.3 µM (inactive) in assay [16]; 16.6 µM (inactive) in assay [8]; 14.9 µM (inactive) in [9]; 17.1 µM (inactive) in assay [17]; 26.7 µM (inactive) in [10]. Besides, the GI50 in assay [11] is 20.5 µM (inactive); in [12] it was 18.8 µM (inactive); in assay [18], 16.7 µM (inactive); in assay [13], 25.4 µM (inactive); in assay [14], 25.4 µM (inactive); in [15], 18.5 µM (inactive). In [19], the GI50 is 16.8 µM (inactive).

Turning to `O=Cc1ccc2ccocc1-2`, the GI50 in assay [1], in [2], in [3], in assay [4], in assay [5] and in assay [6] was > 100 µM (inactive) throughout. Further, the GI50 in assay [7], in assay [16], in [8], in assay [9], in [17] and in assay [10] was > 100 µM (inactive) each time. For the same molecule, the GI50 in assay [11], in [12], in assay [18], in assay [13], in [14] and in [15] was > 100 µM (inactive) throughout. The GI50 in assay [19] is > 100 µM (inactive).
